The subject of data set [1] is Staphylococcus aureus 179. Nature of the data set: Measurement of Minimum Inhibitory Concentration (MIC), QRS. The format is cell-based. In outline:
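MIC by agar dilution: ~10^4 CFU/spot, Müller-Hinton agar, twofold compound series 0.002–100 μg/ml final, 37 °C/18 h. Pre-culture 18 h, 37 °C, shaking, Fleisch extract broth; 10% horse serum added for S. faecium.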

The nature of data set [2]: Test of Pharmacokinetics in Animals (rats). The conditions noted are these: rat, 20 mg/kg. The format is in vivo. As to the method: The pharmacokinetics of the carbapenem derivatives of the present invention was determined using mice. Each of the compounds of Examples 13 and 14 and meropenem (a positive control) was dissolved in distilled water, and mice were orally administered (PO) or subcutaneously injected (SC) at a dosage of 40 mg/kg body weight (I.C.R mice, weighing 22 to 25 g, 4 mice/group). Blood samples were withdrawn from mice tails using heparinated capillaries at 10 min., 20 min., 30 min., 45 min., 1 hour, 2 hours, 3 hours and 4 hours after the administration.
Standard antibiotic samples were prepared by serial two-fold dilution with control blood. Agar plates were prepared with Müller-Hinton agar medium containing 6.7% sheep blood and 1% Streptococcus pyogenes 77A culture solution, and the diluted standard and blood samples were added to wells formed on the plates. The plate was stored at 4° C. for 1 hour to allow the sample to spread, and incubated at 37° C. for 18 hours. PK (pharmacokinetic) change indicators (AUC, Tmax, Cmax and T1/2) of the test compound concentration remaining in the mouse blood over time were assayed over a set period.
Then, pharmacokinetical assay (amount of medicament administered was 20 mg/kg) was carried out as above using rats.

A further data set can be described thus: Acute Toxicity Test. As to the method:
The acute toxicity of the compound of Example 14 was tested using several groups of ICR mice each of 10 mice.

For data set [3], the target named is T1, Dihydropeptidase-1 (DHP-1) (Sus scrofa, UniProt P22412).
T1 sequence (P22412 17-384): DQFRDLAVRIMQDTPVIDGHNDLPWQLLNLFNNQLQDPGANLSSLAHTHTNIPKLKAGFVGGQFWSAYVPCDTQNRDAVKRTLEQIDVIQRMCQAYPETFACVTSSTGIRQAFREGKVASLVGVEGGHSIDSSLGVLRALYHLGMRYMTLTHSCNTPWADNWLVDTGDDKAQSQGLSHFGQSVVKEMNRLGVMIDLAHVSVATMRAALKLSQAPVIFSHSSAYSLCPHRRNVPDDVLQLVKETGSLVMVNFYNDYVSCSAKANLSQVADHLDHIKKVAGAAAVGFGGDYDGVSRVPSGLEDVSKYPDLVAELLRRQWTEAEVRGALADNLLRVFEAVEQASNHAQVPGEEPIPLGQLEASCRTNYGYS
Experimental: (§1) The rate of degradation of the inventive compounds by the action of DHP-1 enzyme extracted from hog kidney was determined as follow.
(§2) 0.2 unit of the enzyme was allowed to react with the above solution at 30° C., and the absorbance at 299 nm of the remaining medicament was measured to determine the degradation rate. The absorbance was measured at 0, 0.5, 1, 2 and 4 hour points, and T1/2, the time when the concentration of the medicament become the half, was obtained by regression analysis.

For data set [4], the target named is T1, Dihydropeptidase-1 (DHP-1). Nature of the data set: Sensitivity Assay Against Dihydropeptidase-1 (DHP-1). The conditions noted are these: pig, DHP-1 enzyme extracted from hog kidney.
Experimental: as §1, §2

In brackets after ≈: the same amount, converted by molar mass. Like-named read-outs stand apart in the source and are kept apart here.

For the compound `COc1ccc(CN2CC(SC3=C(C(=O)[O-])N4C(=O)[C@H]([C@@H](C)O)[C@H]4[C@H]3C)C2)cc1.[K+]` [Exam. 14, Potassium(1R,5S,6S)-2-[1-(4-methoxybenzyl)-azetidine-3-yl-thio]-6-[(1R)-1-hydroxylethyl]-1-methylcarbapen-2-em-3-carboxylate], the MIC (usually the lowest concentration that inhibits growth of the organism) in data set [1] (QRS, Staphylococcus aureus 179) is 0.049 µg/mL. Besides, in data set [2] (in vivo), the “AUC, times higher than meropenem” value is given as 17 times and the “increase in T1/2 than meropenem” value is recorded as “more than 2 times”. Further, in data set [2] (in vivo, po), the “AUC (area under blood-medicament concentration curve till 24 hours after administration)” value was determined as 330 ng·h/mL; the Cmax (commonly the maximum level reached in the sampled fluid or tissue) is 200 ng/mL; the “T1/2 (half time of blood-medicament concentration)” value worked out at 304 min; the Tmax (in general, the time at which the peak concentration occurs) was determined as 42.6 min. Moreover, the “absorption through the oral route” value in data set [2] (in vivo, po) is listed as “absorbed through the oral route to a significant extent”. For the same compound, in data set [2] (in vivo, sc), the “AUC (area under blood-medicament concentration curve till 24 hours after administration)” value came out at 34580 ng·h/mL, the Cmax amounted to 35850 ng/mL, the “T1/2 (half time of blood-medicament concentration)” value is 41.4 min and the Tmax was found to be 22.2 min. Besides, in the data set “Acute Toxicity Test” (ICR mice, 500, 1,000 and 2,000 mg/kg intraperitoneally, 7 days), the death result was “no mice died”. In addition, the LD50 entry in the data set “Acute Toxicity Test” (ICR mice, intraperitoneally injected, observed for 7 days) is on record as “higher than 2,000 mg/kg”. Also, the “T1/2 (time when the concentration of the medicament become the half)” value in data set [3] was determined as 19.88.

With `C[C@@H](O)[C@H]1C(=O)N2C(C(=O)O)=C(S[C@@H]3CN[C@H](C(=O)N(C)C)C3)[C@H](C)[C@H]12` [Meropenem, reference compound], in data set [1] (Staphylococcus aureus, 179), the MIC was found to be 0.195 µg/mL (≈ 0.509 µM). The AUC in data set [2] (whole blood, rats, SC, read-out: AUC (area under blood-medicament concentration curve till 24 hours after administration)) is 2050 ng·h/mL. In data set [2] (whole blood, rats, SC, read-out: Cmax), the Cmax was 3920 ng/mL. In addition, in data set [2] (whole blood, rats, SC, read-out: T1/2 (half time of blood-medicament concentration) (converted)), the half-life was 18.6 min. In data set [2] (whole blood, rats, SC, read-out: Tmax), the Tmax was determined as 15 min. In data set [4], this compound showed a half-life at 500 μg/ml of 1100 min.
